From US11414384B2, “P300/CBP hat inhibitors” (Constellation Pharmaceuticals, Inc., priority 2018, dated 2022)

Tests used:
[1] = target: p300 HAT domain (residues 1287-1666) (Homo sapiens (Human), UniProt Q09472); test: p300 HAT SPA assay (scintillation proximity assay, acetylation of biotinylated H3(1-21) peptide); format: biochemical; conditions: p300 HAT domain; average of at least 2 replicate titrations; read-out: P300 HAT SPA IC50
Outline: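 Purified p300 HAT domain reaction transferred to streptavidin plates to capture biotinylated H3(1-21) peptide, incubated 1.5 hr at RT, and read by scintillation proximity. IC50 values derived from concentration-response data.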

full length p300 = full length p300 (Homo sapiens (Human), UniProt Q09472); test: full length p300 SPA assay; format: biochemical; conditions: average of at least 2 replicate titrations, read-out: FL P300 IC50
full length p300, sequence (Q09472 whole entry): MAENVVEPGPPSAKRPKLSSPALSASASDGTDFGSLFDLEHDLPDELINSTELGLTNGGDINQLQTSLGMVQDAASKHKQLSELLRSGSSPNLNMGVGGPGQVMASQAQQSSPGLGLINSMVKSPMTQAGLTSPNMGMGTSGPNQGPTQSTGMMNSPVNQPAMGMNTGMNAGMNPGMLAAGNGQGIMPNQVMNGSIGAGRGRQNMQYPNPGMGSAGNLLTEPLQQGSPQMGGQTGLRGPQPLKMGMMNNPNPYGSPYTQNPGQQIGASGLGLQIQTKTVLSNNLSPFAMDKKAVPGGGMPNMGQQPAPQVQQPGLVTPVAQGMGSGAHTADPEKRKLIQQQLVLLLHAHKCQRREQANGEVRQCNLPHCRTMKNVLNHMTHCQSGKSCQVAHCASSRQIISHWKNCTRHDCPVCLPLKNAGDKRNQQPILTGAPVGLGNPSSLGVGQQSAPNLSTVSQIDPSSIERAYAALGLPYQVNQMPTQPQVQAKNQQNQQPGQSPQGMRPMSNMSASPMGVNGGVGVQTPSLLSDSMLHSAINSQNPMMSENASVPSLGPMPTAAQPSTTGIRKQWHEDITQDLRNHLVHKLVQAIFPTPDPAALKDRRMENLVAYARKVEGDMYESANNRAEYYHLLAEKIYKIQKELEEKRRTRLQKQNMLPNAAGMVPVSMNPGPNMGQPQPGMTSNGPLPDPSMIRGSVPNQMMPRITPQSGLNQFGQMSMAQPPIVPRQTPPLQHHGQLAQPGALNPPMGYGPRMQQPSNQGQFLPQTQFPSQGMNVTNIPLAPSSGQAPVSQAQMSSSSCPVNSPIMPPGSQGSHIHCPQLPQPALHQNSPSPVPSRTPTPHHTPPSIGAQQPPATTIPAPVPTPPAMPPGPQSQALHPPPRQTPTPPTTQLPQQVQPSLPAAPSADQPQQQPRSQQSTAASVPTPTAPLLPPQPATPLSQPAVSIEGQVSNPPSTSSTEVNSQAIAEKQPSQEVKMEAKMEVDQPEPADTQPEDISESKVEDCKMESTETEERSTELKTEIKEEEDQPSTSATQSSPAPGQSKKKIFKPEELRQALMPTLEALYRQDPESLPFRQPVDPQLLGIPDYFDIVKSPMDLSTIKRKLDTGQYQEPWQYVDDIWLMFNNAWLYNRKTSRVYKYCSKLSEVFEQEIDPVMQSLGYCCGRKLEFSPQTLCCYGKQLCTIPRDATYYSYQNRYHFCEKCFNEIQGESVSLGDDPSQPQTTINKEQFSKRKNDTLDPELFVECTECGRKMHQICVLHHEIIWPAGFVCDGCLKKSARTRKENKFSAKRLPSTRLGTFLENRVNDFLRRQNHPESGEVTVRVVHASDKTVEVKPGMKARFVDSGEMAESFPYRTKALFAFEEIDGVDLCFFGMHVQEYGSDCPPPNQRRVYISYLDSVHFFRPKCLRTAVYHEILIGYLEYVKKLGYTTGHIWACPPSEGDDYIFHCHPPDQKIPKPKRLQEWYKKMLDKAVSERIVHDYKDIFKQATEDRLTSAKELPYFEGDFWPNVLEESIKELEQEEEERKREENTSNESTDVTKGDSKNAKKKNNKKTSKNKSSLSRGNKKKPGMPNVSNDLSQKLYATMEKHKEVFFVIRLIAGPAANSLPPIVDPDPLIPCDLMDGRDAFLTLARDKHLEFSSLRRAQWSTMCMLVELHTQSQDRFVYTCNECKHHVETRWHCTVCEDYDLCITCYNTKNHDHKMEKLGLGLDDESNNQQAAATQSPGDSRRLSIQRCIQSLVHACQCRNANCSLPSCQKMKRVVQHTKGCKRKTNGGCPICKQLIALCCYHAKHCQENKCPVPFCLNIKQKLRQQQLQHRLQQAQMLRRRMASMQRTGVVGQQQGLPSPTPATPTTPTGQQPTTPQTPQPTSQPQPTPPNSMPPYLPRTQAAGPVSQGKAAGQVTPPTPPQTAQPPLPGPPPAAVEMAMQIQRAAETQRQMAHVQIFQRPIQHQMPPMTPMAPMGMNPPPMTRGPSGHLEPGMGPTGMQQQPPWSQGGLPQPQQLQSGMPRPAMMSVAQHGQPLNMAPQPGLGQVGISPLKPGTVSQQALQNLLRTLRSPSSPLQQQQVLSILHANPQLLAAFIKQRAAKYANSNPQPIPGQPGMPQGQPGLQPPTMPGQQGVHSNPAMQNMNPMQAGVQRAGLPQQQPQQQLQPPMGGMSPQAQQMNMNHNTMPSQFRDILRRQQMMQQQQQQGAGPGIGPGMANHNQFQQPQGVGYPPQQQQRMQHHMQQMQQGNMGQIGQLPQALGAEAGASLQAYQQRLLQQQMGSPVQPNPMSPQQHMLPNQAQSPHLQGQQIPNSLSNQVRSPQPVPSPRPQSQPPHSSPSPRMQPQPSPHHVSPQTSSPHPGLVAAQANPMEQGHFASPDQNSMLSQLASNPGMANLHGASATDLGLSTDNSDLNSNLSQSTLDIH
Experimental: Reactions were initiated with 12.5 μL 2 μM biotinylated H3(1-21) peptide (New England Peptide) and run for 1 hr at RT, then quenched with 20 μL stop solution (200 mM Tris pH 8.0, 200 mM EDTA, 2M NaCl, 160 μM anacardic acid). 35 μL of the reaction volume was transferred to a 384-well streptavidin FlashPlate (PerkinElmer) using a Bravo liquid handler (Velocity 11) and incubated for 1.5 hr at RT. Plates were aspirated, washed with 95 μL wash buffer (15 mM Tris pH 8.5, 0.069 μM Brij-35), aspirated, sealed, and scintillation counts read on a Topcount (PerkinElmer). Data were analyzed in Genedata to determine inhibitor IC50 values.
The full length p300 SPA assay was run following the same protocol as p300 HAT SPA assay, but used 6 nM purified full length p300 (purchased from Active Motif) in place of the purified p300-HAT domain.

[2] = test system: acetylation of chromatin at H3K18 (catalyzed by p300 and CBP) in HCT-116 cells; test: H3K18Ac MSD cellular assay; format: cell-based; conditions: 2 hr treatment, average of at least 2 replicate titrations
Experimental: Select compounds were also evaluated in a H3K18Ac MSD cellular assay that measures the ability of compounds to inhibit the acetylation of chromatin at H3K18, a process catalyzed by p300 and CBP. In a typical experiment the p300 HAT inhibitory activity inside cells of the compounds described herein was determined in accordance with the following experimental method. 20 k HCT-116 cells per well are plated in 75 μL RPMI+10% FBS media the night before treatment. Compounds plated in DMSO at 4× final concentration are resuspended in 30 μL RPMI+10% FBS, then 25 μL is combined with corresponding wells containing cells. Treated cells are incubated for 2 hr at 37° C., then lysed in 500 μL final volume and frozen at −80° C. MSD plates (Meso Scale Discovery) are coated overnight at 4° C. with 60 μL 1:500α-total histone antibody (Millipore MAB3422) in PBS. Plates are then blocked with 5% BSA in TBST shaking at RT for 1 hr, washed, and 30 μL lysate added to each well for 2 hr shaking at RT. Plates are washed and 25 μL 1:216α-H3K18ac antibody (CST 9675) in PBS added, then incubated for 1 hr shaking at RT. Plates are washed again, then 25 μL 1:1000 Sulfo-Tag goat a-rabbit antibody (Meso Scale Discovery R32Ab-1) in PBS is added for 1 hr shaking at RT. Plates are washed once more, then 150 μL 1× Read Buffer (MSD #R92TD-3) is added to all wells and read on MSD SECTOR Imager 2400 using the conventional read setup.

p300 HAT domain (residues 1287-1666), sequence (Q09472 1287-1666): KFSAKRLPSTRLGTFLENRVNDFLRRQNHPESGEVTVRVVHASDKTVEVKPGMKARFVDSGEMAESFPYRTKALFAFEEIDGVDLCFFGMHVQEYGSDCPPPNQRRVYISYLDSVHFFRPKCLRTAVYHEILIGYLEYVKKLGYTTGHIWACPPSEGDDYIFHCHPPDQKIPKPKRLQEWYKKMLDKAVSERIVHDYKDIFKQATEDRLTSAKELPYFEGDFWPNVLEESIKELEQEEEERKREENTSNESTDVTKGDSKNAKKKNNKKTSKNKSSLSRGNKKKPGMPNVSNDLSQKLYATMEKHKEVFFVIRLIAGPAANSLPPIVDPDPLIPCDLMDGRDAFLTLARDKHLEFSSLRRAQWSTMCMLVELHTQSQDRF

| SMILES | IC50 [1] | IC50 (full length p300) | EC50 ([2]; Homo sapiens, HCT-116, 2 h) | EC50 [2] |
| --- | --- | --- | --- | --- |
| O=C(c1c[nH]c2ccccc12)C(NCCc1ccc(Cl)cc1)c1ccccn1 (racemic) [42 Racemic, (rac)-2-((4-chlorophenethyl)amino)-1-(1H-indol-3-yl)-2-(pyridin-2-yl)ethan-1-one] | 9140 nM | 196 nM |  |  |
| O=C(c1c[nH]c2ccccc12)C(NCCc1ccc(Cl)cc1)c1ccncc1 (racemic) [44 Racemic, (rac)-2-((4-chlorophenethyl)amino)-1-(1H-indol-3-yl)-2-(pyridin-4-yl)ethan-1-one] | 3330 nM | 120 nM |  |  |
| NS(=O)(=O)c1ccc(CCNC(C(=O)c2c[nH]c3cccnc23)c2ccccc2)cc1 (racemic) [Example 30, (rac)-4-(2-((2-oxo-1-phenyl-2-(1H-pyrrolo[3,2-b]pyridin-3-yl)ethyl)amino)ethyl) benzenesulfonamide] | 32300 nM | 732 nM |  |  |
| NS(=O)(=O)c1ccc(CCNC(C(=O)c2c[nH]c3ccncc23)c2ccccc2)cc1 (racemic) [Example 31, (rac)-4-(2-((2-oxo-1-phenyl-2-(1H-pyrrolo[3,2-c]pyridin-3-yl)ethyl)amino)ethyl) benzenesulfonamide] | 33900 nM | 10600 nM |  |  |
| COc1ccccc1CCNC(C(=O)c1c[nH]c2ccccc12)c1ccccc1 (single isomer, unassigned) [6 Isomer 2] | 1830 nM | 82 nM |  |  |
| COc1cccc(CCNC(C(=O)c2c[nH]c3ccccc23)c2ccccc2)c1 (single isomer, unassigned) [7 Isomer 2] | 5140 nM | 269 nM |  |  |
| COc1ccc(CCNC(C(=O)c2c[nH]c3ccccc23)c2ccccc2)cc1 (single isomer, unassigned) [8 Isomer 2] | 873 nM | 27.7 nM |  |  |
| O=C(c1c[nH]c2ccccc12)C(NCCc1ccccn1)c1ccccc1 (single isomer, unassigned) [9 Isomer 1] | > 60000 nM | 25900 nM |  |  |
| O=C(c1c[nH]c2ccccc12)C(NCCc1ccccn1)c1ccccc1 (single isomer, unassigned) [9 Isomer 2] | 33200 nM | 728 nM |  |  |
| O=C(c1c[nH]c2ccccc12)C(NCCc1cccnc1)c1ccccc1 (single isomer, unassigned) [10 Isomer 1] | 21200 nM | 630 nM |  |  |
| O=C(c1c[nH]c2ccccc12)C(NCCc1cccnc1)c1ccccc1 (single isomer, unassigned) [10 Isomer 2] | 19200 nM | 711 nM |  |  |
| O=C(c1c[nH]c2ccccc12)C(NCCc1ccncc1)c1ccccc1 (single isomer, unassigned) [11 Isomer 1] | 9940 nM | 204 nM |  |  |
| O=C(c1c[nH]c2ccccc12)C(NCCc1ccncc1)c1ccccc1 (single isomer, unassigned) [11 Isomer 2] | 7150 nM | 197 nM |  |  |
| NS(=O)(=O)c1ccc(CCNC(C(=O)c2c[nH]c3cccc(Cl)c23)c2ccccc2)cc1 (single isomer, unassigned) [12 Isomer 1] | > 60000 nM | 8500 nM |  |  |
| NS(=O)(=O)c1ccc(CCNC(C(=O)c2c[nH]c3cc(-n4ccnc4)ccc23)c2ccccc2)cc1 (single isomer, unassigned) [119 Isomer 2] | 580 nM |  | 232 nM |  |
| N#Cc1ccc(CCNC(C(=O)c2c[nH]c3cc(-n4ccnc4)ccc23)c2ccccc2)cc1 (single isomer, unassigned) [120 Isomer 1] | 987 nM |  |  | 193 nM |
| N#Cc1ccc(CCNC(C(=O)c2c[nH]c3cc(-n4ccnc4)ccc23)c2ccccc2)cc1 (single isomer, unassigned) [120 Isomer 2] | 172 nM |  |  | 73.1 nM |
| CN1CCN(c2ccc3c(C(=O)C(NCCc4ccc(C#N)cc4)c4ccccc4)c[nH]c3n2)CC1 (single isomer, unassigned) [121 Isomer 2] | 82 nM |  | 122 nM |  |
| CN1CCN(c2ccc3c(C(=O)C(NCCc4ccc(C#N)cc4)c4ccccc4)c[nH]c3c2)CC1 (single isomer, unassigned) [122 Isomer 2] | 44 nM |  | 97.5 nM |  |

| SMILES | IC50 [1] | IC50 (full length p300) | EC50 ([2]; Homo sapiens, HCT-116, 2 h) | EC50 [2] |
| --- | --- | --- | --- | --- |
| CN1CCN(c2ccc3c(C(=O)C(NCCc4ccc(S(N)(=O)=O)cc4)c4ccccc4)c[nH]c3c2)CC1 (single isomer, unassigned) [124 Isomer 2] | 566 nM |  | 429 nM |  |
| CNC(=O)c1ccc(CCN[C@H](C(=O)c2c[nH]c3cc(-c4cnn(C)c4)ccc23)c2ccccc2)cc1 (single isomer, unassigned) [131 Isomer 2] | 1290 nM |  | 101 nM |  |
| Cn1cc(-c2ccc3c(C(=O)C(NCCc4ccc(C(N)=O)cc4)c4ccccc4)c[nH]c3c2)cn1 (single isomer, unassigned) [139 Isomer 2] | 511 nM |  | 53.4 nM |  |
| Cn1cc(-c2ccc3c(C(=O)C(NCCc4ccc(C(=O)O)cc4Cl)c4ccccc4)c[nH]c3c2)cn1 (single isomer, unassigned) [142 Isomer 2] | 81.6 nM |  | 1200 nM |  |
| COc1cccc2c(C(=O)[C@@H](NCCc3ccc(S(N)(=O)=O)cc3)c3ccccc3)c[nH]c12 (single isomer, unassigned) [144 Isomer 2] | 1410 nM |  | 1380 nM |  |
| CCNC(=O)c1ccc2c(C(=O)[C@@H](NCCc3ccc(C#N)cc3)c3ccccc3)c[nH]c2c1 (single isomer, unassigned) [146 Isomer 1] | 786 nM |  |  | 401 nM |
| CNC(=O)c1ccc2c(C(=O)C(NCCc3ccc(Cl)cc3Cl)c3ccccc3)c[nH]c2c1 (single isomer, unassigned) [151 Isomer 2] | 101 nM |  | 53.5 nM |  |
| N#Cc1ccc(CCNC(C(=O)c2c[nH]c3cc(C(=O)NCC(F)(F)F)ccc23)c2ccccc2)cc1 (single isomer, unassigned) [157 Isomer 2] | 66 nM |  | 36.4 nM |  |
| CNC(=O)CCc1ccc2c(C(=O)C(NCCc3ccc(F)cc3)c3ccccc3)c[nH]c2c1 (single isomer, unassigned) [158 Isomer 1] | 1500 nM |  | 641 nM |  |
| CC(C)(O)CNC(=O)c1ccc2c(C(=O)C(NCCc3ccc(C#N)cc3)c3ccccc3)c[nH]c2c1 (single isomer, unassigned) [161 Isomer 2] | 95.1 nM |  | 78.1 nM |  |
| CCN1CC(NC(=O)c2ccc3c(C(=O)C(NCCc4ccc(C#N)cc4)c4ccccc4)c[nH]c3c2)C1 (single isomer, unassigned) [163 Isomer 2] | 41.9 nM |  | > 1000 nM |  |
| N#Cc1ccc(CCNC(C(=O)c2c[nH]c3cc(C(=O)NC4CS(=O)(=O)C4)ccc23)c2ccccc2)cc1 (single isomer, unassigned) [166 Isomer 2] | 28.8 nM |  | 112 nM |  |
| N#Cc1ccc(CCNC(C(=O)c2c[nH]c3cc(C(=O)NC4COC4)ccc23)c2ccccc2)cc1 (single isomer, unassigned) [174 Isomer 1] | 965 nM |  |  | > 1000 nM |
| N#Cc1ccc(CCNC(C(=O)c2c[nH]c3cc(C(=O)NC4COC4)ccc23)c2ccccc2)cc1 (single isomer, unassigned) [174 Isomer 2] | 39 nM |  |  | 98.3 nM |
| CS(=O)(=O)CCCNC(=O)c1ccc2c(C(=O)C(NCCc3ccc(C#N)cc3)c3ccccc3)c[nH]c2c1 (single isomer, unassigned) [175 Isomer 2] | 44 nM |  | 184 nM |  |
| Cn1cnc(-c2ccc3c(C(=O)[C@@H](NCCc4ccc(C(N)=O)cc4)c4ccccc4)c[nH]c3c2)c1 (single isomer, unassigned) [177 Isomer 2] | 838 nM |  | 1270 nM |  |
| Cn1cc(-c2ccc3c(C(=O)C(NCCc4ccc(C(N)=O)cc4)c4ccccc4)cnn3c2)cn1 (single isomer, unassigned) [179 Isomer 1] | 302 nM |  | 192 nM |  |
| Cn1cc(-c2ccc3c(C(=O)C(NCCc4ccc(C(N)=O)cc4)c4ccccc4)c[nH]c3c2)nn1 (single isomer, unassigned) [180 Isomer 2] | 370 nM |  | 219 nM |  |
| NC(=O)c1ccc(CCNC(C(=O)c2c[nH]c3cc(-n4ccnc4)ccc23)c2ccccc2)cc1 (single isomer, unassigned) [181 Isomer 1] | 642 nM |  | 243 nM |  |
